Reference: PubChem BioAssay (NCI)
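Following 48 hours of exposure in 96-well plates, responses at five concentrations were used to interpolate endpoints linearly. Abbreviation: GI50, concentration required for 50% inhibition of growth. TGI: total growth inhibition.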 *1 amine or outer side, *2 acyl side, *3 side chain or, on linkers, in order; H or OH if unused. Where a SMILES comes first, the peptide text is derived from it. Bridges are numbered along the chain shown (N, C = ends). [ ]: non-standard residue; d: D form. The star is where a group is joined. Phe(3,5-F2) = N[C@@H](Cc1cc(F)cc(F)c1)C(=O)O; Pro(4R-Me) = C[C@H]1CN[C@H](C(=O)O)C1; aThr = C[C@H](O)[C@H](N)C(=O)O; Pip = O=C(O)[C@@H]1CCCCN1; X10 = Fc1cc(C2CC2)ccc1N*; CO = O=C([*:1])[*:2]

Legend:
Assay in all cases: NCI anticancer screen, dose series, 48 h
HCT-15 colon = test system: HCT-15 colon
SK-MEL-2 melanoma = test system: SK-MEL-2 melanoma
OVCAR-5 ovarian = test system: OVCAR-5 ovarian
MOLT-4 leukemia = test system: MOLT-4 leukemia
NCI-H23 lung = test system: NCI-H23 lung
HCT-116 colon = test system: HCT-116 colon
SF-295 CNS = test system: SF-295 CNS
NCI-H460 lung = test system: NCI-H460 lung
SN12C renal = test system: SN12C renal
T-47D breast = test system: T-47D breast

Compound | GI50 (HCT-15 colon) [µM] | TGI (HCT-15 colon) [µM] | GI50 (SK-MEL-2 melanoma) [µM] | TGI (SK-MEL-2 melanoma) [µM] | GI50 (OVCAR-5 ovarian) [µM] | TGI (OVCAR-5 ovarian) [µM] | GI50 (MOLT-4 leukemia) [µM] | TGI (MOLT-4 leukemia) [µM] | GI50 (NCI-H23 lung) [µM] | TGI (NCI-H23 lung) [µM] | GI50 (HCT-116 colon) [µM] | TGI (HCT-116 colon) [µM] | GI50 (SF-295 CNS) [µM] | TGI (SF-295 CNS) [µM] | GI50 (NCI-H460 lung) [µM] | TGI (NCI-H460 lung) [µM] | GI50 (SN12C renal) [µM] | TGI (SN12C renal) [µM] | GI50 (T-47D breast) [µM] | TGI (T-47D breast) [µM]
CCOC1Oc2ccccc2C(=O)/C1=C/Nc1ccc(C(C)=O)cc1 (centres undefined) | 17.4 | 46.3 | 40.1 | > 100 | 19.5 | 48.3 | 15.8 | 53.3 | 13.9 | 36.2 | 22.8 | > 100 | 23.9 | 62.3 | 32.8 | > 100 | 19.4 | 47.8 | 62.7 | > 100
COC(=O)/C=C1\S/C(=N\NC(=O)c2cc3ccc2/C=C\c2ccc(cc2)/C=C\3)N(c2ccccc2)C1=O | 1.87 | 4.05 | 2.65 | 7.76 | 1.92 | 3.84 | 3.12 | > 100 | 1.95 | 4.15 | 1.79 | 3.67 | 2.07 | 4.19 | 2.08 | 4.29 | 2.27 | 5.94 | 1.54 | 3.65
COc1ccc2c(c1)sc1nc(-c3ccccc3)c(-c3cccc4ccccc34)n12 | 0.47 | > 38.4 | 1.67 | > 100 | 2.07 | > 100 | 0.774 | > 100 | 1.21 | > 100 | 0.615 | > 100 | 0.415 | – | 0.416 | > 35.2 | 1.02 | > 100 | 4.38 | > 62.2
OCCN(CCO)c1ncnc2c1ncn2Cc1ccc(CCl)cc1 | 18.4 | 39.9 | 16.5 | 41.1 | 14.1 | 27.8 | 8.54 | 52.4 | 18.3 | 37.1 | 14 | 33.8 | 17 | 33.6 | 14.2 | 30.8 | 21 | 45.8 | 19.4 | 36.5
CC(=O)OC1OC([C@@H]2c3cccc(O)c3C(=O)c3c(O)cc(C)cc32)C(O)C(O)C1O (some centres undefined) | 0.0305 | 1.46 | 0.162 | 2.14 | 0.0323 | 0.36 | 0.0384 | 0.662 | < 0.0199 | 0.216 | 0.108 | 1.2 | < 0.0166 | 0.119 | 0.108 | – | < 0.0179 | < 0.0321 | 0.306 | 0.87
Nc1nc(-n2c(-c3ccccc3)nc3c(Br)cc(Br)cc3c2=O)nnc1-c1cccc(Cl)c1Cl | 3.1 | 21.9 | 83.8 | > 100 | 6.22 | 50.9 | 25.4 | > 100 | 15.7 | 53.1 | 2.43 | 7.06 | 11.2 | 34.8 | 6.92 | > 100 | 18.8 | > 100 | > 100 | > 100
CN(C)c1ccc(/C=C\C2=[N+](C)c3ccccc3C2(C)C)cc1 | 4.18 | > 69.7 | 1.31 | 43.2 | 3.18 | 43.8 | – | > 100 | 0.299 | 23.7 | 0.32 | > 32.1 | 0.994 | > 23.6 | 0.466 | 7.16 | 0.351 | 14.6 | 0.634 | > 33.2
COc1ccc(CC2c3cc4c(cc3CCN2C)OCO4)c(C=O)c1OC (centres undefined) | – | > 100 | – | > 100 | – | > 100 | – | > 100 | – | > 100 | – | > 100 | – | > 100 | – | > 100 | – | > 100 | – | > 100
O=[N+]([O-])c1ccc2c(c1)/C(=N/N=C1c3ccccc3Cc3ccccc31)c1cc([N+](=O)[O-])cc([N+](=O)[O-])c1-2 | – | 4.99 | – | 24.8 | – | 6 | – | 5.99 | – | 3.85 | – | 3.08 | – | 3.7 | – | 14.1 | – | 3.23 | – | 3.49
Nc1ccccc1C#C/C=C\C#Cc1ccccc1OC(F)(F)F | 4 | 20 | 6.38 | 29 | 13 | 44.1 | 2.91 | 24.1 | 6.44 | 80.2 | 4.45 | 16.7 | 3.03 | 11.4 | 3.78 | 17.3 | 9.85 | 26.8 | 4.19 | 74.1
C[C@@H]1C[C@H]2C(=O)O[C@@H](C)[C@H](NC(=O)[C@H](Cc3cc(F)cc(F)c3)NC(=O)Nc3ccc(C4CC4)cc3F)C(=O)N3CCC[C@H]3C(=O)N3CCCC[C@H]3C(=O)N[C@@H](C)C(=O)N2C1 ({X10-CO}-[Phe(3,5-F2)][aThr]P[Pip]A[Pro(4R-Me)]; ester 2-C) | 0.0796 | 5.28 | 0.0549 | 3.83 | 0.0575 | 3.39 | 0.205 | > 42.7 | 0.0522 | 35.3 | 0.0414 | 2.16 | 0.0438 | 1.57 | 0.0391 | 4.55 | 0.0401 | 42.7 | 0.0448 | > 22.1
NC(N)=NS(=O)(=O)c1ccc(Nc2c3ccccc3nc3c(C(=O)NCCO)cccc23)cc1 | 32.2 | – | 26.6 | – | 22.4 | – | 4.78 | – | 26.3 | – | 21.9 | > 100 | 20.5 | 60.7 | 9.16 | – | 26.7 | – | 11 | –
O=C(Nc1ccc(F)cc1)Nc1ccc(Cl)c([N+](=O)[O-])c1 | 2.92 | 12.1 | 2.32 | 5.83 | 3.55 | 14.9 | 3.13 | 92.9 | 2.62 | 10.7 | 3.07 | 11.8 | 2.27 | 7.93 | 2.72 | 11.5 | 2.95 | 11.7 | 2.18 | 9.67
